In patent US20100204167A1, “ACTIVE COMPOUND COMBINATIONS HAVING INSECTICIDAL AND ACARICIDAL PROPERTIES” (priority 2006, published 2010):

How the values were obtained:
[1] = test system: Phaedon cochleariae larvae; assay: Phaedon cochleariae larvae test (Example D, spray); type: in vivo; settings: single active compound
Tetranychus urticae = assay: Tetranychus test (OP-resistant/spray treatment); type: in vivo; settings: single active compound
Experimental: Disks of bean leaves (Phaseolus vulgaris) which are infested by all stages of the greenhouse red spider mite (Tetranychus urticae) are sprayed with an active compound preparation of the desired concentration.
After the desired period of time, the activity in % is determined.

Myzus persicae [2] = assay: Myzus persicae test (cabbage leaves sprayed); type: in vivo; settings: single active compound
Aphis gossypii = Aphis gossypii test (cotton leaves dipped); type: in vivo; settings: single active compound
Myzus persicae [3] = assay: Myzus persicae test (cabbage leaves dipped); type: in vivo; settings: single active compound
[4] = test system: Phaedon cochleariae larvae; assay: Phaedon cochleariae larvae test (Example G); settings: 0.8 ppm, single active compound
[5] = test system: Spodoptera frugiperda larvae; assay: Spodoptera frugiperda larvae test (spray); type: in vivo; settings: single active compound

Molecule: CC(C)(C)c1ccc(CSc2cnn(C(C)(C)C)c(=O)c2Cl)cc1 [pyridaben]
- Kill in % after 6d ([1]; 4 g/ha): 33%
- Kill in % after 2d (Tetranychus urticae; 0.8 g/ha): 0%

Molecule: milbemectin
- Kill in % after 1d (Myzus persicae [2]; 0.8 g/ha): 0%

Molecule: CO[C@H]1CC[C@]2(CC1)NC(=O)C(c1cc(C)ccc1C)=C2O [compound (I-1)]
- Kill in % after 6d (Aphis gossypii; 100 ppm): 70%
- Kill in % after 6d (Myzus persicae [3]; 4 ppm): 5%
- Kill in % after 6d [4]: 0%

Molecule: COC1CCC2(CC1)NC(=O)C(c1cc(C)ccc1C)=C2O (centres unmarked) [compound (I-1-a)]
- Kill in % after 6d (Aphis gossypii; 100 ppm): 50%
- Kill in % after 6d (Myzus persicae [3]; 4 ppm): 20%
- Kill in % after 6d [4]: 0%

Molecule: spinosad
- Kill in % after 6d (Aphis gossypii; 100 ppm): 20%
- Kill in % after 6d [4]: 20%
- Kill in % after 2d (Tetranychus urticae; 4 g/ha): 10%

Molecule: CCOCn1c(-c2ccc(Cl)cc2)c(C#N)c(Br)c1C(F)(F)F [chlorfenapyr]
- Kill in % after 2d ([1]; 4 g/ha): 0%

Molecule: CCOC(=O)OC1=C(c2cc(C)ccc2C)C(=O)NC12CCC(OC)CC2 (centres unmarked) [compound (I-2-a)]
- Kill in % after 6d (Aphis gossypii; 0.8 ppm): 0%
- Kill in % after 6d (Myzus persicae [2]; 0.8 g/ha): 50%
- Kill in % after 1d (Myzus persicae [2]; 20 g/ha): 0%
- Kill in % after 6d ([1]; 4 g/ha): 0%
- Kill in % after 2d ([1]; 20 g/ha): 0%
- Kill in % after 6d ([1]; 20 g/ha): 0%
- Kill in % after 6d (Myzus persicae [3]; 0.8 ppm): 0%
- Kill in % after 2d ([5]; 20 g/ha): 17%
- Kill in % after 2d ([5]; 100 g/ha): 83%
- Kill in % after 2d (Tetranychus urticae; 0.8 g/ha): 0%
- Kill in % after 2d (Tetranychus urticae; 20 g/ha): 0%

Molecule: CCc1nn(C)c(C(=O)NCc2ccc(C(C)(C)C)cc2)c1Cl [tebufenpyrad]
- Kill in % after 6d ([1]; 4 g/ha): 0%

Molecule: Cc1nn(C)c(Oc2ccccc2)c1C=NOCc1ccc(C(=O)OC(C)(C)C)cc1 [fenpyroximate]
- Kill in % after 1d (Myzus persicae [2]; 20 g/ha): 20%
- Kill in % after 6d ([1]; 20 g/ha): 33%
- Kill in % after 2d ([5]; 100 g/ha): 50%

Molecule: CCOC(=O)OC1=C(c2cc(C)ccc2C)C(=O)N[C@]12CC[C@@H](OC)CC2 [compound (I-2)]
- Kill in % after 6d (Aphis gossypii; 0.8 ppm): 0%
- Kill in % after 6d (Myzus persicae [2]; 0.8 g/ha): 50%
- Kill in % after 1d (Myzus persicae [2]; 20 g/ha): 0%
- Kill in % after 6d ([1]; 4 g/ha): 0%
- Kill in % after 2d ([1]; 20 g/ha): 0%
- Kill in % after 6d ([1]; 20 g/ha): 0%
- Kill in % after 6d (Myzus persicae [3]; 0.8 ppm): 10%
- Kill in % after 2d ([5]; 20 g/ha): 17%
- Kill in % after 2d ([5]; 100 g/ha): 83%
- Kill in % after 2d (Tetranychus urticae; 0.8 g/ha): 20%
- Kill in % after 2d (Tetranychus urticae; 20 g/ha): 10%

Molecule: CC(C)c1cc(Oc2ccccc2)cc(C(C)C)c1NC(=S)NC(C)(C)C [diafenthiuron]
- Kill in % after 6d (Myzus persicae [2]; 4 g/ha): 60%
- Kill in % after 2d ([5]; 100 g/ha): 50%

Molecule: abamectin
- Kill in % after 6d (Aphis gossypii; 0.8 ppm): 45%
- Kill in % after 6d (Myzus persicae [3]; 0.8 ppm): 10%
- Kill in % after 6d (Myzus persicae [3]; 4 ppm): 65%
